Measured values: patent US20180078569A1, “KITS FOR INDENTIFYING AND TREATING SUBJECTS RESISTANT TO ACETYL SALICYLIC ACID” (priority 2006, published 2018)

How the values were obtained:
COX-1 [1] = target: T1, COX-1 (Homo sapiens, UniProt P23219); assay: Thrombin-induced thromboxane production of aspirinated platelets (TxB2 ELISA); type: cell-based; conditions: for thrombin-induced production of thromboxane: aspirinated platelets, with or without inhibitor added prior to ASA; for reduction of thromboxane production: inhibitor added prior to ASA, versus aspirinated platelets not pretreated
T1 construct: prostaglandin H synthase, an enzyme present in platelets and commonly defined as COX-1; endogenous in cells; host or cells: washed platelets from donors' venous blood (healthy volunteers; patients 5 days after aorto-coronary bypass)
Experimental: The resuspended platelets in the Tyrode's buffer at the concentration of 2.5×10^8 cells/ml were treated with aspirin (50 microM) at 10° C. for 15 min and then kept at 37° C. or at 4° C. for 15 min.
MRP4 inhibitors were used such as Dipyridamole and MK571 ((E)-3-[[[3-[2-(7-chloro-2-quinolinyl)ethenyl]phenyl]-[[3-dimethylamino)-3-oxo-propyl]-thio]-methyl]thio]-propanoic acid), both at 100 microM and incubated 30 min at RT before aspirin addition.
(§1) The evaluation of the biologic efficacy of aspirin in platelets was made by studying Thromboxane A2 production, a specific marker of the cyclooxygenase pathway in platelets. Aspirin and/or Dipyridamole treated platelets (see above) were activated with thrombin 1 U/ml for 1 h at 37° C., and then centrifugated 1 min at 8.000 g. Thromboxane B2, a stable metabolite of TXA2, was measured in the supernatant through a commercial ELISA kit (Cayman, chemicals Co).

MRP4-mediated transport [2] = target: T2, MRP4-mediated transport (Homo sapiens, UniProt O15439); assay: Cytosolic concentrations of ASA and salicylic acid in platelets incubated with ASA (HPLC); type: cell-based; conditions: for cytosolic concentration of acetylsalicylic acid (ASA) / cytosolic concentration of metabolite salicylic acid: platelets pretreated with inhibitor (dipyridamole 100 microM) 10 minutes before ASA 50 microM, compared to platelets treated with solvent alone (DMSO)
T2 construct: endogenous in cells; host or cells: washed platelets (and a dense-granule suspension made from them) from donors' venous blood
T2 sequence (O15439 1-1325): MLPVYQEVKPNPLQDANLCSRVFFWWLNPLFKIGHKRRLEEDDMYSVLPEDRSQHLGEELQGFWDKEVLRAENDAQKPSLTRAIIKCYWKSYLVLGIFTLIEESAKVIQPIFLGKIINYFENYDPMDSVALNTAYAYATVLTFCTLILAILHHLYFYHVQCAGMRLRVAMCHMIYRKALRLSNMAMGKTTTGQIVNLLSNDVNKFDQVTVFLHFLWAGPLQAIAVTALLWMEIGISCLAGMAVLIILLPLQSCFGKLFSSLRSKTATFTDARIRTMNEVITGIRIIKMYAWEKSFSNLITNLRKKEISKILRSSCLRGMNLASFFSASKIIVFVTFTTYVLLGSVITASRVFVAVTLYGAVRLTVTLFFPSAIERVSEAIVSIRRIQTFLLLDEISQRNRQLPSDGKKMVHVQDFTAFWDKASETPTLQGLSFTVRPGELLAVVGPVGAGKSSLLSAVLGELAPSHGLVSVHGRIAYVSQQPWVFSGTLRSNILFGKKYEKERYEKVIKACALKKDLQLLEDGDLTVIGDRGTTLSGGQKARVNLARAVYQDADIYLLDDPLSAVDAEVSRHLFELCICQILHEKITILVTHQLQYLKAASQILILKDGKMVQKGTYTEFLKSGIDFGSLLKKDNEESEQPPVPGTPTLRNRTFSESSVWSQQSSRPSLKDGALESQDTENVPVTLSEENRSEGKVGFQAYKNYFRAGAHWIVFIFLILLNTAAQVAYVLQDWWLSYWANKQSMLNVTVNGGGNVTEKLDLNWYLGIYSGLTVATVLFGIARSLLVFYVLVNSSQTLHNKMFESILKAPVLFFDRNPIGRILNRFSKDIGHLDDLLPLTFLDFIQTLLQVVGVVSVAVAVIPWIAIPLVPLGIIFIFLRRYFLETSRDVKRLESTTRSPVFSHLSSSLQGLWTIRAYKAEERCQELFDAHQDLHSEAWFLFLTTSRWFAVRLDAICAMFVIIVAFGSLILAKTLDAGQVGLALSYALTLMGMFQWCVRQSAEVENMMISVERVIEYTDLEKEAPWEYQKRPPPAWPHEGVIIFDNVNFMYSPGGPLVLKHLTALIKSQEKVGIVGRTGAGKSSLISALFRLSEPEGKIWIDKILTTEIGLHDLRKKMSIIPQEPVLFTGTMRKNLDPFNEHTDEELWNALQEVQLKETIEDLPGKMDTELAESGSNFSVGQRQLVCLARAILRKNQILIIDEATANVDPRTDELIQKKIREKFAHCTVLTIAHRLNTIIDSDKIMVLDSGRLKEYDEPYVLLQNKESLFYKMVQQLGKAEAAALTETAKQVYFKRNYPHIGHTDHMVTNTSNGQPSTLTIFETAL
Source text: (§2) 1987, 9, 243-7) and a beta-counter for measuring the radioactive aspirin.
Dipyridamole, in addition to inhibiting the transport mediated by these channels, is also an inhibitor of platelet activity, in that it increases the platelet concentrations of AMPc, inhibiting phosphodiesterase isoform V (PDE typeV).
(§3) The PRP was then subjected to platelet count through blood cell count Celltac Auto Nihon Kohden (MEK 8118K). The platelets were then moved away from plasma through centrifugation of PRP, acidified at pH 6.5 with ACD (citric acid, sodium citrate and glucose 1/10 v/v), at 800×g for 10 min. and resuspended in Tyrode's buffer (CaCl2 0.20 g/L, KCl 0.20 g/L, […], NaCl 8.00 g/L, NaH2PO4*H2O), at pH 7.35 and charged with glucose and albumin. The preparation of a dense rich platelet granule suspension was made according to the method reported by (Fukami M H et al. J. Cell. Biol. 1978, 77, 389-99) and the degree of purity was verified through mepacrine Fluorimetric probe and the purity percentage was checked through the cytofluorimeter. If the concentration of the dense granules compared to the other organelles was lower than 80%, the suspension of platelet granules was not used for the study.
The resuspended platelets in the Tyrode's buffer at the concentration of 2.5×10^8 cells/ml were treated with aspirin (50 microM) at 10° C. for 15 min and then kept at 37° C. or at 4° C. for 15 min. […]
(§4) The entrapment of aspirin inside platelets or in the dense granules was measured through the method of Gaspari and Locatelli (Ther Drug Monit. 1987, 9, 243-7).

COX-1 [3] = target: T1, COX-1; assay: Thrombin-induced thromboxane production in platelets from bypass patients treated in vitro; type: cell-based; conditions: for thromboxane production induced by thrombin: platelets from patients subjected to aorto-coronary bypass, treated in vitro
Experimental: patients at 5 days from an aortic-coronary-bypass.
as §1

[4] = oral administration; cited from earlier work
MRP4-mediated transport [5] = target: T2, MRP4-mediated transport; assay: ASA concentration in platelet dense granule preparation treated with ASA and ATP; type: cell-based
Experimental: as §2, §3
In the rich platelet dense granule suspension, ATP and ASA were added to the preparation, then it was kept at 37° C. for 15 min so a to reduce the transpost mediated by MRP4; the suspension was pretreated either with apyrase, an ATP scavenger substance or with Dipyridamole 30 min before adding aspirin, or the treatment with aspirin was made at 4° C.
as §4

[6] = tested on: cardiovascular complications; conditions: daily intake 75-150 mg/day, patients who previously had coronary disease; cited from earlier work
MRP4-mediated transport [7] = target: T2, MRP4-mediated transport; assay: Release of 14C-labelled ASA and of ATP from thrombin-activated platelets; type: cell-based; conditions: platelets pretreated with dipyridamole
Experimental: Aspirin labelled with 14C (American Radiolabeled Chemicals, Inc. Saint Louis, USA) was added to the platelet suspension for 15 min at 37° C. After removing the excess of the substance marked by double centrifugation, the platelets were activated with Thrombin (0.2 U/ml) and then centrifugated. The reduction of the transport mediated by MRP4 was made through the preincubation of the platelet preparation with Dipyridamole 30 min before aspirin addition. The results are reported by evaluating the percentage of the radioactive present in the supernatant compared to the total radioactivity of the platelet preparation. ATP secretion was analyzed as a control through the luminometric method with commercial kit (Chronolog, Hevertown, Pa., USA).

[8] = treatment of platelets with ASA at 4° C. instead of 37° C.
[9] = pretreatment before ASA, relative to maximum obtained with ATP in external medium at 37° C.

T1 sequence (P23219 24-599): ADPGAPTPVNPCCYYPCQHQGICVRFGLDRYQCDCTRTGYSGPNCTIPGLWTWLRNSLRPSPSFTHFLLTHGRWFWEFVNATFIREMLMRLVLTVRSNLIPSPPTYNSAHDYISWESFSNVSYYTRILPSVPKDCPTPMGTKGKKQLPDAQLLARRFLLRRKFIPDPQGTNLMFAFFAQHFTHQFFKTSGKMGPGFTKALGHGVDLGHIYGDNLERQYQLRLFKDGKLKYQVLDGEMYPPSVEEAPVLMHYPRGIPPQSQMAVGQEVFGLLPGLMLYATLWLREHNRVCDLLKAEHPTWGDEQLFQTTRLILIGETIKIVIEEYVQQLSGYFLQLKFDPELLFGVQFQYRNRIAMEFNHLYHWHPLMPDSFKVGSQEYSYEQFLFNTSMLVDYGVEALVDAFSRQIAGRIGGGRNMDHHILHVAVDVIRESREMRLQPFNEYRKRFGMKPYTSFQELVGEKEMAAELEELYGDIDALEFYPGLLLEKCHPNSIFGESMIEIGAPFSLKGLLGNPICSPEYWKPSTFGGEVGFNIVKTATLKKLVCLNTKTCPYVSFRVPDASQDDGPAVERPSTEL

Compound | thrombin-induced production of thromboxane (COX-1 [1]) [ng/10^8 cells] | reduction of thromboxane production (COX-1 [1]) [%] | cytosolic concentration of acetylsalicylic acid (ASA) (MRP4-mediated transport [2]) [%] | cytosolic concentration of metabolite salicylic acid (MRP4-mediated transport [2]) [%] | ASA concentration in platelet granules (MRP4-mediated transport [5]; [9]) [%] | thromboxane production induced by thrombin (COX-1 [3]) [ng/10^8 cells] | other results
CN(C)C(=O)CCSC(SCCC(=O)O)c1cccc(/C=C/c2ccc3ccc(Cl)cc3n2)c1 (centres unmarked) [MK-571] | 140.22 | 59.2 | 208 | 202 |  |  | 
CC(=O)Oc1ccccc1C(=O)O [ASA, acetylsalicylic acid] | 343.7 |  |  |  |  | 1437.0±549.1 | bioavailability [4]: 40-50%; half-life [4]: 15 to 20 min; plasma concentration peak registered after [4]: 30 to 40 min; platelet inhibition manifested after administration [4]: one; ASA concentration in platelet granules (MRP4-mediated transport [5]; incubation of ASA at 4° C., relative to maximum obtained with ATP at 37° C.): 53.6%; reduction of the risk of cardiovascular complications (myocardial infarction, cerebral infarction and vascular death) [6]: 25%; increase of cytosolic concentration of ASA (MRP4-mediated transport [2]; [8]): 240%; increase of cytosolic concentration of salicylate (MRP4-mediated transport [2]; [8]): 160%
Clc1cccc(Nc2nnc(-c3ccccc3)c3ccccc23)c1 [MY-5445, 1-(3-chlorophenylamino)-4-phenylphthalazine] |  |  | 110 | 120 |  |  | 

The next lines start with results.

thrombin-induced production of thromboxane (COX-1 [1]) [ng/10^8 cells] | reduction of thromboxane production (COX-1 [1]) [%] | cytosolic concentration of acetylsalicylic acid (ASA) (MRP4-mediated transport [2]) [%] | cytosolic concentration of metabolite salicylic acid (MRP4-mediated transport [2]) [%] | ASA concentration in platelet granules (MRP4-mediated transport [5]; [9]) [%] | Compound | thromboxane production induced by thrombin (COX-1 [3]) [ng/10^8 cells] | other results
 |  |  |  | 56.1 | apyrase |  | 
142.7 | 58 | 285 | 293 | 41.7 | OCCN(CCO)c1nc(N2CCCCC2)c2nc(N(CCO)CCO)nc(N3CCCCC3)c2n1 [dipyridamole, 2,6-bis-(diethanolamino)-4,8-dipiperidino-(5,4-d)-pyrimidine] | 499.8±247.7 | thromboxane production with respect to platelets treated with aspirin alone (COX-1 [3]; platelets from bypass patients pretreated in vitro before aspirin): 35%; release of radiolabelled ASA after activation with thrombin (MRP4-mediated transport [7]; thrombin 0.2 U/ml): absent; ATP released by the platelets (MRP4-mediated transport [7]; thrombin-activated): 1.8 ± 0.3 nmol
